One molecule from publication PMC11142126 (bioRxiv, 2024) can be followed below.

The subject of test [1] is K562 p21-ffLuc reporter (wildtype TP53). Put plainly: cells. To be noted: Homo sapiens, K562, read-out: 461 / 5.3 / 107.
Test [2] relates to PPM1D in MOLM13-tPPM1D cells. The experiment in a line: cells. To be noted: read-out: 461 / 5.3 / 107.
In test [3] the target is T1, PPM1D (Homo sapiens, UniProt O15297).
T1 sequence (O15297 1-420): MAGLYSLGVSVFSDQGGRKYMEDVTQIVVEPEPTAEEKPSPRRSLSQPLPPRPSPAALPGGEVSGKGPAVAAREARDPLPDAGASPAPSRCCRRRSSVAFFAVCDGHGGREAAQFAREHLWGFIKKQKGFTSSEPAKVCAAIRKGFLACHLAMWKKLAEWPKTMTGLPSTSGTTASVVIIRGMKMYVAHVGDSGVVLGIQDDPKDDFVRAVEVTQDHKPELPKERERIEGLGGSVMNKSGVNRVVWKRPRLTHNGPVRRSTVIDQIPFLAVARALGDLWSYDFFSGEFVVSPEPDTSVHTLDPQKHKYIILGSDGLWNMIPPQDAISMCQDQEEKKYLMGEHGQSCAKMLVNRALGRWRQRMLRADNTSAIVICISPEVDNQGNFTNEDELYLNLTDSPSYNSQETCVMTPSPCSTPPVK
Put plainly: SPR. In kind it is binding.

The target of test [4] is T1, PPM1D. The experiment in a line: biochemical.
Test [5] deals with MOLM13 TP53 WT (MOLM13-tPPM1D). Put plainly: cells. To be noted: Homo sapiens, MOLM-13, read-out: 461 / 5.3 / 107.

On to `Cc1ncc(Cl)cc1NCc1ccc(C(=O)N[C@@H](CC2CCCC2)C(=O)NC2CC2)s1` [GSK2830371], for which the EC50 in test [1] turned out to be 221 nM; in test [2], 383 nM. Besides, in test [3], the Kd was determined as 8 nM. Also, the IC50 turned out to be 20 nM in test [4] and 394 nM in test [5].
